Test results reported in article PMC6609034, “Unraveling the role of the secretor antigen in human rotavirus attachment to histo-blood group antigens” (PLoS Pathogens, 2019).
pKd: −log10 of the molar value.

What was measured:
VP8* P[8] = assay: ELISA-like binding assay to biotinylated HBGAs; parameters: species or system human rotavirus; settings: biotinylated PAA glycan 2 μg/ml, VP8* 10 μg/ml
Excerpt: A panel of biotinylated sugar antigens including Le^a, Le^b, Le^c (lacto-N-biose; LNB), H type-1, H type-2 and blood group A and B trisaccharides were purchased from Glyconz (Fig 1 and S1 Table). These glycans are biotinylated neoglyconjugates of a poly[N-(2-hydroxyethyl)acrylamide] (PAA) with a size from 30 to 50 KDa. This forms a flexible polymer ideal for a multivalent presentation of glycans. Immobilized streptavidin F96 black plates (Nunc) were coated with the biotinylated oligosaccharides (2 μg/ml) in milli-Q water and incubated during 1 hour at 37°C. After functionalization the plates were washed once with PBS containing 0.05% of Tween 20 (PBS-T) and the VP8* proteins were added (10 μg/ml) and incubated at 4°C overnight. After three washes with PBS-T, a rabbit polyclonal antibody anti GST (1:1,000) (Abcam) was added and the plates were incubated one hour at 37°C. Then, the plates were washed three times with PBS-T and incubated for 1 h at 37°C with 1:10,000 dilution of horseradish peroxidase (HRP)-conjugated goat anti-rabbit (Abcam). After three washes with PBS-T, the binding was detected using QuantaBlue reagent (ThermoFisher) kit, as recommended by the manufacturer. Fluorescence units were registered by a MultiScan microplate reader. All the binding assays were performed in triplicate.

[1] = target: VP8* from the lineage IV strain (P[8]LIV); assay: SPR interaction of VP8* with immobilized HBGAs; format: binding, human rotavirus
Procedure: (§1) The affinity assays were based on SPR and performed in a Biacore T100 instrument (GE Healthcare). H1 PAA-biotin and LNB PAA-biotin were diluted to a concentration of 1 mg/ml in water and captured with streptavidin present in a SA sensor chip (GE Healthcare). H1 was immobilized in channel 2 (630 RU) of the sensor chip and LNB was immobilized in channel 4 (624 RU). The channels 1 and 3 were used as the reference surfaces for channels 2 and 4, respectively. The immobilization process was performed by conditioning the sensor chip surface with three consecutive 1-minute injections of 1 M NaCl 50 mM NaOH before biotinylated ligands were immobilized at a flow rate of 15 μl/min. The affinity assays of VP8* polypeptides to biotinylated sugars were performed at 10°C using 1X HBS-EP^+ buffer (0.01 M HEPES pH 7.4, 0.15 M NaCl, 3 mM EDTA, 0.005% Surfactant P20), a flow rate of 5 μl/min with 2700 seconds of contact time and a dissociation time of 1800 seconds. The regeneration step consisted in a wash step with 10 mM Glycine-HCl pH 2 for 20 seconds at the same flow rate. The assays were performed with purified VP8* at different concentrations (45; 137; 411; 1,234; 3,703; 11,111; 33,333; 100,000 and 200,000 nM). Each run included three blanks without sample. The affinity data were obtained after analysis of sensorgrams performed with the BIAevaluation 2.0 software (GE Healthcare). Since multivalent oligosaccharides are immobilized on a sensor chip surface, avidity and rebinding effects can take place and apparent affinity constants (Kda) are calculated with this experimental setup. Kda values were obtained from the steady-state kinetics experiment as the ligand concentration needed to achieve a half-maximum binding at equilibrium. The experiments were made in triplicate. Graphical representation of signal/concentration curves were plotted using GraphPad Prism 6 for MacOsX.

[2] = target: VP8* from Rotarix strain (lineage I); assay: SPR interaction of VP8* with immobilized HBGAs; format: binding, human rotavirus
Procedure: as §1

[3] = target: T1, VP8* P[8]c (clinical isolate, lineage III) (Rotavirus A, UniProt A0A0S0VKY7); assay: SPR apparent affinity of VP8* for immobilized HBGAs; format: binding, human rotavirus; settings: PAA-biotin glycan immobilized on SA chip, VP8* as analyte, 10°C, ± standard deviation, read-out: Kda (apparent affinity constant)
T1 sequence (A0A0S0VKY7 1-161): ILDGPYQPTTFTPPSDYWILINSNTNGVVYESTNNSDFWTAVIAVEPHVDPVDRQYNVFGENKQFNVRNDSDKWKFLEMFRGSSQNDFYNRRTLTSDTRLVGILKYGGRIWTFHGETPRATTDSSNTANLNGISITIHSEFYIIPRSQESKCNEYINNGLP
Procedure: as §1

VP8* P[8]Wa (lineage I) = target: T2, VP8* P[8]Wa (lineage I) (Rotavirus A, UniProt P11193); assay: as above; format: binding, human rotavirus; settings: PAA-biotin glycan immobilized on SA chip, VP8* as analyte, 10°C, ± standard deviation, read-out: Kda (apparent affinity constant)
T2 construct: amino acids 64–224 from the VP4 protein of rotavirus; GST (N); made in house; host or cells: E. coli BL21 (DE3)
T2 sequence (P11193 64-224): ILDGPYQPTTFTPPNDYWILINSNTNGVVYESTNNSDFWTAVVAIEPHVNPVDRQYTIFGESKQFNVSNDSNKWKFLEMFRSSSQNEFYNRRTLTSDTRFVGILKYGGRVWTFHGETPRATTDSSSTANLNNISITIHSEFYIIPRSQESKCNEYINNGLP
Procedure: as §1

[4] = test system: P[8]c VP8* mutant R209A (M2); assay: SPR binding of VP8* mutant; parameters: species or system human rotavirus
Excerpt: (§2) Selected residues in the GST::VP8* P[8] were replaced for alanine or valine according to the structural data of the LNB binding site. Four mutants (M1–M4) were constructed using a Quick-Change site-directed mutagenesis kit (Stratagene) and appropriate oligonucleotides (S5 Table), and the DNA changes were confirmed by DNA sequencing. Mutant M1, M2 and M3 contained changes in the codons for tryptophan 174, arginine 209 and glutamic 212 residues, respectively, that introduced an alanine at each position. Mutant M4 substituted isoleucine 173 by valine.
as §1

[5] = test system: P[8]c VP8* mutant E212A (M3); assay: SPR binding of VP8* mutant; parameters: species or system human rotavirus
Excerpt: as §2, §1

[6] = test system: P[8]c VP8* mutant W174A (M1); assay: SPR binding of VP8* mutant; parameters: species or system human rotavirus
Excerpt: as §2, §1

P[8]c M4(Ile173Val) VP8* = target: T3, P[8]c M4(Ile173Val) VP8* (Rotavirus A, UniProt A0A0S0VKY7, I110V); assay: SPR apparent affinity of VP8* for immobilized HBGAs; format: binding, human rotavirus; settings: for pKd: PAA-biotin glycan immobilized on SA chip, VP8* as analyte, 10°C, ± standard deviation, read-out: Kda (apparent affinity constant)
T3 sequence (A0A0S0VKY7 1-161 I110V): T1 sequence (A0A0S0VKY7 1-161)
Excerpt: as §2
as §1, with “The affinity data were obtained after analysis of sensorgrams performed with the BIAevaluation 2.0 software (GE Healthcare).” left out, “Kda values were obtained from the steady-state kinetics experiment as the ligand concentration needed to achieve a half-maximum binding at equilibrium. The experiments were made in triplicate. Graphical representation of signal/concentration curves were plotted using GraphPad Prism 6 for MacOsX.” left out

| SMILES | binding (ELISA-like) (VP8* P[8]) | interaction by SPR [1] | interaction by SPR [2] | pKd [3] | pKd (VP8* P[8]Wa (lineage I)) | binding by SPR [4] | binding by SPR [5] | binding by SPR [6] | pKd (P[8]c M4(Ile173Val) VP8*) | Kda of VP8 I173V compared to the wild-type protein (P[8]c M4(Ile173Val) VP8*; higher than wild-type P[8]c) [fold] |
| --- | --- | --- | --- | --- | --- | --- | --- | --- | --- | --- |
| CC(=O)NC1C(O)OC(CO)C(O)C1OC1OC(CO)C(O)C(O)C1OC1OC(C)C(O)C(O)C1O (stereo not drawn) [H1, Fuc-α1,2-Gal-β1,3-GlcNAc] | recognized | too low to be determined | too low to be determined | 4.55 | 4.10 | lost their ability to interact | lost their ability to interact | lost their ability to interact | 4.41 | 1.4 |
| CC(=O)NC1C(O)OC(CO)C(O)C1OC1OC(CO)C(O)C(O)C1O (stereo not drawn) [LNB, Gal-β1,3-GlcNAc] | recognize | too low to be determined | too low to be determined | 4.28 | 4.18 | lost their ability to interact | lost their ability to interact | lost their ability to interact | 4.31 |  |
